The values below come from patent publication US20140234252A1, “Composition and Methods for the Treatment of Degenerative Retinal Conditions” (The Provost, Fellows, Foundation Scholars, and the other …, priority 2011, published 2014).

The test system of one data set is human PBMC. The data set can be described thus: Cytokine ELISA in LPS-primed, C1Q-activated human PBMC with inhibitors. Particulars: PBMC primed with LPS overnight, 5 μg/ml C1Q 6 h, inhibitor added 1 h before C1Q. In kind it is cell-based. As to the method:
(§1) FIG. 3: Complement factor C1Q, a component of Drusen, activates the NLRP3 inflammasome: (a) Production of IL-1β (left panel) and TNFα (right panel) in BMDMs primed with CEP for 3 h and activated for 6 h with C1q at increasing doses. (b) Western blot of caspase-1 cleavage products in THP1 cells primed with LPS and treated with increasing doses of C1Q. (c) Live cell imaging of immortalised BL6 BMDMs stably expressing YFP-ASC. Cells were primed for 3 hrs with either LPS (top panel) or CEP-HSA followed by treatment with 10 μg C1Q (right panel) for a further 2 hrs. Oligomerisation of ASC-YFP was observed by speck formation, original magnification ×60. (d) IL-1β (left panel) and TNF-α (right panel) production in WT and Nlrp3^-/- BMDCs primed with LPS (3 h) and activated with C1Q (16 h) at increasing doses (2.5, 5 and 10 μg C1Q). (e) IL-1β, IL-18 and IL-6 production in human PBMC primed with […] LPS overnight and activated with 5 μg ml C1Q for 6 h, with the addition, 1 h before C1Q treatment of increasing doses (10 fold) of ZVAD (caspase-1 inhibitor). All ELISA data are representative of a minimum of 3 separate experiments carried out in triplicate.
FIG. 13: IL-1β, IL-18 and IL-6 production in human PBMC primed with 100 ng/ml LPS overnight and activated with 5 μg/ml C1Q for 6 h, with the addition, 1 h before C1Q treatment of increasing doses (10 fold) of (a) DPI (ROS inhibitor), (b) Bafilomycin (inhibits lysosomal acidification), (c) CA-074 Me (cathepsin B inhibitor).
(§2) ELISA's were used to quantify cytokines in supernatants from the various experimental groups used throughout this study. IL-1β (RnD Systems), IL-18 (MBL International), IL-6 (RnD Systems), TNF-α (RnD Systems) and VEGF (RnD Systems) were analyzed throughout. All ELISA's were conducted a minimum of 3 times in triplicate. Inhibitors used during this study were added at the following highest concentrations 1 h prior to inflammasome activation: 1 μg/ml of caspase-1 inhibitor VI (Calbiochem), 5 μM cytochalasin D (Sigma Aldrich, Ireland), 10 μM CA-074 Me (cathepsin B inhibitor) (Sigma Aldrich, Ireland), 10 μM DPI (Sigma Aldrich, Ireland).
(§3) ARPE-19 cell line (ATCC CRL 2302) were obtained from LGC promochem, THP1 cells and primary isolated human peripheral blood mononuclear […] (PBMCs) were used for in vitro inflammasome activation assays. Cells were cultured at 37° C., 5% CO2, 95% air in a 1:1 mixture of Dulbecco's modified Eagle's medium (DMEM) and Ham's F12 medium with 1.2 g/L sodium bicarbonate, 2.5 mM L-glutamine, 15 mM HEPES, 0.5 mM sodium pyruvate (Sigma Aldrich) with 10% foetal calf serum (FCS). BMDCs and BMDMs were also isolated from WT, NLRP3-/-, TLR-2-/-, C3H/HeN and C3H/HeJ mice on a congenic C57/B16 background. BMDCs and BMDMs were stained with anti-CD11c-APC and anti-CD11b-PeCy7. Cells were gated on live single cells and expression of CD11c and CD11b was assesed by flow cytometry (FIG. 19). Mouse bEnd.3 microvascular endothelial cells were grown on fibronectin (Sigma Aldrich Ireland) coated tissue culture flasks in DMEM containing Glutamax and 10% FCS.
In general terms: ELISA stands for enzyme-linked immunosorbent assay.

A short description of data set [1]: Zeta potential measurement of C1Q in solution. In kind it is physicochemical.
For a further data set, the system named is BMDCs. The data set can be described thus: Cytokine ELISA in WT and Nlrp3-/- BMDCs primed with LPS and activated with C1Q. In kind it is cell-based, mouse. The note with it: for production of IL-1β: LPS 3 h, C1Q 16 h. As to the method:
as §1, §2
(§4) ARPE-19 cell line (ATCC CRL 2302) were obtained from LGC promochem, THP1 cells and primary isolated human peripheral blood mononuclear […] (PBMCs) were used for in vitro inflammasome activation assays. […]

Another data set concerns BMDMs expressing YFP-ASC. The data set can be described thus: ASC speck formation in immortalised BMDMs expressing YFP-ASC. The data set is classed as cell-based, mouse. Particulars: primed BMDMs, live cell imaging. The source says: Live cell imaging of speck formation was undertaken using a temperature and CO2 regulated confocal laser scanning microscopy (Olympus FluoView TM FV1000).

The next data set deals with BMDMs. Put plainly: Cytokine ELISA in BMDMs activated with C1Q. In kind it is cell-based, mouse. As to the method:
as §1, §2, §4

The subject of another data set is THP1 cells. Put plainly: Western blot of caspase-1 cleavage products in THP1 cells. In kind it is cell-based, human. Particulars: THP1 cell lysates. As to the method:
Generally, antibodies specific for caspase-1 (Santa-Cruz Biotech), beta-actin (Abcam), NLRP3 (Sigma Aldrich, Ireland), TLR-4 (Santa-Cruz Biotech) were incubated on membranes overnight at 4° C. Membranes were washed with TBS, and incubated with a secondary antibody against rabbit (IgG) with Horse-Radish-Peroxidase (HRP) conjugates (1:2500) (Sigma-Aldrich, Ireland), or mouse (IgG) (1:1000), (Sigma-Aldrich, Ireland), for 3 hours at room temperature. Immune complexes were detected using enhanced chemiluminescence (ECL). All Western blots were repeated a minimum of 3 times.
as §3, with “Mouse bEnd.3 microvascular endothelial cells were grown on fibronectin (Sigma Aldrich Ireland) coated tissue culture flasks in DMEM containing Glutamax and 10% FCS.” left out
For orientation: A western blot detects proteins with antibodies after separation by electrophoresis.

Data set [2] concerns intraocular neovascularization in C57BL/6 mice. Particulars: administered to C57BL/6 mice during development of oxygen induced retinopathy; cited from earlier work.
Data set [3] has as its system mouse brain microvascular endothelial cell line (bEnd.3). Put plainly: VEGF ELISA in bEnd.3 cells treated with recombinant IL-18. In kind it is cell-based. Particulars: increasing doses of IL-18, 24 hrs, growth medium. As to the method:
as §2
(§5) ARPE-19 cell line (ATCC CRL 2302) were obtained from LGC promochem, THP1 cells and primary isolated human peripheral blood mononuclear […] (PBMCs) were used for in vitro inflammasome activation assays. Cells were cultured at 37° C., 5% CO2, 95% air in a 1:1 mixture of Dulbecco's modified Eagle's medium (DMEM) and Ham's F12 medium with 1.2 g/L sodium bicarbonate, 2.5 mM L-glutamine, 15 mM HEPES, 0.5 mM sodium pyruvate (Sigma Aldrich) with 10% foetal calf serum (FCS). […]
(§6) We reasoned that IL-18 might confer its protection via the regulation of VEGF synthesis. To test this hypothesis we treated ARPE19 cells and a mouse brain microvascular endothelial cell line (bEnd.3) with recombinant IL-18 and subsequently analysed VEGF levels in the growth medium. […]

Another data set concerns ARPE-19 cells. Put plainly: VEGF ELISA in ARPE-19 cells treated with recombinant IL-18. In kind it is cell-based. Particulars: increasing doses of IL-18, 24 hrs, growth medium. As to the method:
as §2, §5, §6

The next data set has as its system wet AMD. The note with it: human, in vivo; cited from earlier work.

Residues, ends and D or L forms follow the SMILES beside them. *: point of attachment. Cbz = O=C(OCc1ccccc1)*; CH2F = FC*

For `CCCNC(=O)[C@H]1O[C@@H]1C(=O)N[C@H](C(=O)N1CCC[C@H]1C(=O)OC)[C@@H](C)CC` [CA-074 Me], in the data set with human PBMC, the “C1Q induced IL-1β production” value is listed as “restricted”, the “C1Q induced IL-18 production” value was “restricted” and the IL-6 production entry is listed as “no effect”.

Take `c1ccc2c(c1)[I+]c1ccccc1-2` [DPI]: the “C1Q induced IL-1β production” value with human PBMC is “no effect”.

For `CC(NC(=O)C(NC(=O)OCc1ccccc1)C(C)C)C(=O)NC(CC(=O)O)C(=O)CF` (stereo not drawn) [ZVAD] (Cbz-Val-Ala-Asp-CH2F; configuration not given here), in the data set with human PBMC, the “C1Q induced IL-1β production” value is listed as “decreased” and the “C1Q induced IL-18 production” value was “decreased”.

With `CO/C1=C\C(C)=C\[C@@H](C)[C@@H](O)[C@@H](C)C/C(C)=C/C=C/[C@H](OC)[C@@H]([C@@H](C)[C@@H](O)[C@H](C)[C@@]2(O)C[C@@H](O)[C@H](C)[C@@H](C(C)C)O2)OC1=O` [bafilomycin A], in the data set with human PBMC, the “C1Q induced IL-1β production” value is given as “restricted”, the “C1Q induced IL-18 production” value is given as “restricted” and the IL-6 production entry is recorded as “no effect”.

For “C1Q: complement factor, primary initiating component of the classical complement pathway; drusen component, isolated from human blood”, the “zeta average (zeta potential)” value in data set [1] worked out at 11.8 mV. Further, the “production of IL-1β” value is given as “failed to produce IL-1β” with BMDCs (Nlrp3-/- cells); “did produce a significant level of IL-1β” in the data set on BMDCs (WT BMDCs); “produced significant levels of IL-1β” with BMDMs (BMDMs primed with CEP-HSA 3 h, C1Q 6 h); “did not cause the production of IL-1β” in the data set with BMDMs (C1Q alone, unprimed BMDMs). The “levels of TNFα” value in the data set on BMDCs (WT and Nlrp3-/- BMDCs, LPS primed, C1Q) was “remained unchanged”. For the same compound, the “ASC oligomerisation (YFP-ASC speck formation)” value in the data set with BMDMs expressing YFP-ASC is “could cause ASC oligomerisation”. Further, the “secretion of TNFα” value with BMDMs (BMDMs primed with CEP-HSA, C1Q added) was “remained unchanged”. The “cleaved caspase-1 p10” value in the data set with THP1 cells was “observed cleaved caspase-1 p10”.

Take “IL-18: 18KDa mature IL-18; protein sequence NCBI Accession no. NP—001553.1; also covers recombinant IL-18”: the neovascularization entry in [2] is reported as “no inhibition of neovascularization”. Moreover, the “levels of VEGF secreted” value (in [3]; in the data set on ARPE-19 cells) was “significantly decreased” throughout.

Turning to “Infliximab: marketed drug tested in clinical trials in wet AMD”, in the data set on wet AMD, the “subjects in whom symptoms were greatly exacerbated” value was “more than 50%”.
